From patent US7718804B2, “Quaternary nitrogen heterocyclic compounds for detecting aqueous monosaccharides in physiological fluids” (University of Maryland Biotechnology Institute, priority 2003, dated 2010)
Where two headings read alike, the source gives them in different places. Blank lines part the entries; values can stand above or below the molecule they belong to.

How the values were obtained:
[1] = Fluorescence intensity response to glucose in solution; conditions: for decrease in fluorescence intensity: 0.60 mM glucose, pH 6 to 7 range, buffered solution
Experimental: All steady state fluorescence measurements were performed in a 4×1×1 cm fluorometric plastic cuvette, using a Varian Cary Eclipse fluorometer, and all absorption measurements were performed using a Varian UV/VIS 50 spectrophotometer. […]
The emission spectra of o-BMOQBA in the presence of varying concentrations of glucose and fructose are shown in FIG. 12A and FIG. 12B, respectively. It can be seen that the fluorescence intensity of o-BMOQBA in pH 7.5 phosphate buffer is inversely proportional to the glucose and fructose concentrations. […] A plot of the intensity ratio, I′/I, at λ=450 nm, where I′ and I represent the fluorescence intensities in the absence and presence of sugar, respectively, is shown in FIG. 12C. […] Referring to FIG. 12C, there is a 2.8-fold change in intensity by the addition of 60 mM sugar.
(§1) The intensity ratio at λ=450 nm for o-BMOQBA in buffered media (pH 5-8) at various glucose concentrations is shown in FIG. 16A, wherein I′ corresponds to the intensity in the absence of glucose and I corresponds to the intensity at the specified glucose concentration. In addition, the intensity ratio for o-BMOQBA in buffered media (pH 5-8) at low glucose concentrations, typical of those found in tears, is shown in FIG. 16B. Correspondingly, the intensity ratio for o-BMOQBA in buffered media (pH 5-8) at various fructose concentrations is shown in FIGS. 17A and 17B.
Each BAF was tested to determine the usefulness of these BAFs with regard to tear glucose sensing in a contact lens. Towards that end, both solution-based and doped contact lens-based measurements, the methods of which are described above, were performed and subsequently compared.

[2] = pKa from normalized fluorescence intensity versus pH, with and without 100 mM sugar; type: physicochemical
Excerpt: A normalized plot of intensity at 427 nm as a function of pH is shown in FIG. 6, wherein I is the emission intensity at the specified pH and Io is the initial emission intensity at pH 3.0. Though not to be bound by theory, it is likely that the change in fluorescence intensity relative to pH value is attributed to the change in hybridization of the boron atom with increasing pH. At low pH values, the boronic acid group is an electron-deficient Lewis acid that is sp^2-hybridized and thus is trigonal planar. As the pH increases, the anionic form of the boronic acid begins to form, which corresponds to a more electron rich sp^3-hybridized boron atom and an […] shape. The change in the geometry of the boron atom induces the fluorescence spectral changes of the molecular sensing moieties.
Based on previously reported pKa values for boronic acid compounds, these pKa values are the lowest reported for a phenyl boronic acid derivative. The quaternary nitrogen of the quinolinium moiety not only reduces the pKa of the compound, but also stabilizes the anionic boronate diester complex (represented by D in FIG. 1), which may explain the affinity of sugar for these novel compounds. Importantly, the large decrease in the pKa of the boronic acid-sugar complex relative to the uncomplexed boronic acid, allows for the quantitative detection of monosaccharides at or below physiological pH because substantial optical changes are observed.
A normalized plot of intensity at 450 nm as a function of pH is shown in FIG. 14, wherein normalized intensity is the emission intensity at the specified pH, I, relative to the initial emission intensity at pH 3.0, Io. As discussed with reference to o-BMQBA, the change in the geometry of the boron atom may explain the fluorescence spectral changes of the molecular sensing moieties.
Comparing the pKa values of previously reported boronic acid compounds relative to the novel BMOQBA isomers, these pKa values are relatively low. As discussed with reference to o-BMQBA, the lower pKa values can be attributed to the increased Lewis acidity of the boronate diester complex (represented by D in FIG. 1). Importantly, the large decrease in the pKa of the boronic acid-sugar complex relative to the uncomplexed boronic acid, allows for the quantitative detection of monosaccharides at or below physiological pH because substantial optical changes are observed.

[3] = Fluorescence intensity response to fructose in solution
Experimental: (§2) All steady state fluorescence measurements were performed in a 4×1×1 cm fluorometric plastic cuvette, using a Varian Cary Eclipse fluorometer, and all absorption measurements were performed using a Varian UV/VIS 50 spectrophotometer.
The emission spectra of o-BMQBA in the presence of varying concentrations of fructose and glucose are shown in FIG. 4A and FIG. 4B, respectively. It can be seen that the fluorescence intensity of o-BMQBA in pH 7.5 phosphate buffer is inversely proportional to the glucose and fructose concentrations. […] A plot of the intensity ratio, I′/I, at λ=427 nm, where I′ and I represent the fluorescence intensities in the absence and presence of sugar, respectively, is shown in FIG. 4C. […] It is noted that the concentration of fructose in blood is ˜10 times lower than glucose, a relationship which is also thought to occur in tears (N. Dicesare, et. al., J. Bio. Med. Opt., 7(4), 538-545 (2002)).
as §1, with “ratio” for “ratio at λ=450 nm”, “o-BMQBA” for “o-BMOQBA”, “8A,” for “16A,”, “8B.” for “16B.”, “9A” for “17A”, “9B.” for “17B.”
Because physiological fluids contain chloride ions, which are well known quenchers of quinolinium fluorescence (Geddes, C. D., Meas. Sci. Technol., 12(9), R53-R88 (2001); Geddes, C. D., et al., J. Heterocyclic Chem., 36(4), 949-951 (1999); Geddes, C. D., et al., Anal. Biochem., 293(1), 60-66 (2001)), the fluorescence intensity and intensity ratios of o-BMQBA in pH 7.5 buffer having 100 mM NaCl with varying quantities of fructose or glucose was measured and shown in FIGS. 10 and 11, respectively, where I′ corresponds to the intensity in the absence of fructose and I corresponds to the intensity at the specified fructose concentration. It can be seen that although chloride quenched the intensity of the emission in the presence of fructose, the intensity ratio change for fructose is still significant, amounting to a 4-fold decrease in fluorescence intensity at 60 mM fructose (see FIG. 10B). The quenching effect was less significant at lower concentrations of fructose (see FIG. 10C) and for glucose concentrations, both high and low (see FIGS. 11B and 11C). This minimal quenching effect for BMQBA is supported by the calculated Stern-Volmer constants, KSV, for the BMQBA compounds in water, which were determined to be 44.0 M^−1, 20.0 M^−1, 17.0 M^−1 and 35.0 M^−1 for o-BMQBA, m-BMQBA, p-BMQBA and BMQ, respectively. These are small quenching constants that are readily accounted for using simple corrections in the fluorescence signal, as readily determined by one skilled in the art of fluorescence.
as §1
Each BAF was tested to determine the usefulness of these BAFs with regard to tear glucose sensing in a contact lens. Towards that end, both solution-based and doped contact lens-based measurements, the methods of which are described above, were performed and subsequently compared. […]

[4] = Dissociation constant from fluorescence titration with glucose; type: binding; conditions: pH 7.5 phosphate buffer
Excerpt: (§3) Stability (KS (mM^−1) and dissociation (KD) constants were obtained by fitting the titration curves with sugar to the relation:
(§4) [formula] where Imin and Imax are initial (no sugar) and final (plateau) fluorescence intensities of the titration curves and KD=(1/KS).

[5] = Dissociation constant from fluorescence titration with fructose; type: binding; conditions: pH 7.5 phosphate buffer
Excerpt: as §3, §4

[6] = Spectral properties in water (absorption, emission, quantum yield, lifetime); type: physicochemical; conditions: for φf (quantum yield): relative to SPQ (φf=0.53 in water)
Experimental: as §2
Time-solved intensity decays were measured using reverse start-stop time-correlated single-photon timing (TCSPC) with a Becker and Hickl Gmbh 630 SPC PC card and unamplified MCP-PMT. Vertically polarized excitation at ˜372 nm was obtained using a pulsed LED source (1 MHz repetition rate) and a dichroic sheet polarizer. The instrumental response function was ˜1.1 ns fwhm. The emission was collected at the magic angle (54.7°) using a long pass filter (Edmund Scientific) which cut-off the excitation wavelengths.
The intensity decays were analyzed in terms of the multi-exponential model:
[formula] where αi are the amplitudes and τi are the decay times, Σαi=1.0. The fractional contribution of each component to the steady-state intensity is given by:
The mean lifetime of the excited state is given by:
The values of αi and τi were determined by non-linear least squares impulse reconvolution with a goodness-of-fit χ^2R criterion.
A representative absorption and emission spectra for o-BMQBA in water is shown in FIG. 3B, which corresponds to all three isomers and BMQ. BMQBA has a strong absorption band at ˜320 nm, which can be assigned to n→π* transitions, and an excitation band at ˜427 nm, and as such, has a large Stokes shift of about 100 nm, which is ideal for fluorescence sensing. The quantum yield values of the BMQBA compounds in water relative to N-(3-sulfopropyl)-6-methoxyquinolinium (SPQ) (φf=0.53 in water) are shown in Table 1. The low quantum yields and relatively short lifetime of the BMQBA and BMQ molecules can be attributed to a photo-induced electron transfer, whereby the phenyl ring acts as the donor and the quinolinium moiety acts as the acceptor.
A representative absorption and emission spectra for o-BMOQBA in water is shown in FIG. 3A, which corresponds to all three isomers and BMOQ. BMOQBA has a strong absorption band at ˜345 nm, which can be assigned to n→π* transitions, and an excitation band at ˜450 nm, and as such, has a large Stokes shift of about 100 nm, which is ideal for fluorescence sensing. The quantum yield values of the BMOQBA compounds in water relative to N-(3-sulfopropyl)-6-methoxyquinolinium (SPQ) (φf=0.53 in water) are shown in Table 2. […] We can only speculate as to the quantum yield differences between the m-BMOQBA and p-BMOQBA compounds, which may be attributed to through-bond and through-space mechanisms.

[7] = in water; cited from earlier work
[8] = Fluoride sensing by fluorescence
Excerpt: Moreover, because the quenching of fluorescence is not a selective process, any fluorophore quenched by chloride is also quenched by bromide and iodide to an even more substantial extent, allowing for the determination of bromide or iodide concentrations as well. Generally, fluorophores that are quenched by chloride are not quenched by fluoride, which is often attributed to the “heavy-atom effect” (Geddes, C. D., Meas. Sci. Technol., 12, R53 (2001); Lakowicz, J. R., Principles of Fluorescence Spectroscopy, 2nd ed., Kluwer/Academic Plenum Publishers, New York, 1997).

[9] = buffer with 100 mM fructose, 100 mM fructose, read-out: pKa (buffer + fructose)
[10] = buffer with 100 mM glucose, 100 mM glucose, read-out: pKa (buffer + glucose)
[11] = buffer without sugar, absence of sugar, read-out: pKa (buffer)

pKa [2, 9]: 5.08 | pKa [2, 10]: 6.18 | pKa [2, 11]: 6.92 | Kd [4]: 100 mM | Kd [5]: 4.7 mM | λabs (max) [6]: 319 nm | λem (max) [6]: 427 nm | τf (mean lifetime) [6]: 4.01 ns | φf (quantum yield) [6]: 0.043
SMILES: Cc1ccc2c(ccc[n+]2Cc2ccccc2B(O)O)c1.[Br-] [o-BMQBA, N-(2-boronobenzyl)-6-methylquinolinium bromide]
decrease in fluorescence intensity [1]: ~10% | decrease in fluorescence intensity ([3]; 60 mM fructose, pH 7.5 buffer with 100 mM NaCl): 4 fold

pKa [2, 9]: 4.8 | pKa [2, 10]: 6.62 | pKa [2, 11]: 7.9 | Kd [4]: 49.5 mM | Kd [5]: 0.65 mM | λem (max) [6]: 450 nm | τf (mean lifetime) [6]: 26.7 ns | φf (quantum yield) [6]: 0.46
SMILES: COc1ccc2c(ccc[n+]2Cc2ccccc2B(O)O)c1.[Br-] [o-BMOQBA, N-(2-boronobenzyl)-6-methoxyquinolinium bromide]
decrease in fluorescence intensity [1]: 5-10% | change in intensity (I′/I at 450 nm) ([1]; addition of 60 mM sugar, pH 7.5 phosphate buffer (FIG. 12C)): 2.8 fold | decrease in fluorescence intensity ([3]; 0.50 mM fructose, pH 6 to 7 range, buffered solution): 10-40%

SMILES: COc1ccc2c(ccc[n+]2CCCS(=O)(=O)O)c1 [SPQ, N-(3-sulfopropyl)-6-methoxyquinolinium]
φf (quantum yield) of reference standard [7]: 0.53

SMILES: CN(C)c1ccc(/C=C/C=C/C(=O)c2ccc(B(O)O)cc2)cc1 [Chalc 2, 5-[4′-(dimethylamino)phenyl]-1-(4′-boronophenyl)-pent-2,4-dien-1-one]
increase in fluorescence emission ([3]; 100 mM fructose, pH 8.0, solution): 3 fold

SMILES: Nc1ccc2c(ccc[n+]2Cc2ccccc2B(O)O)c1.[Br-] [BAQBA, N-(2-boronobenzyl)-6-aminoquinolinium bromide]
detectable fluoride concentration [8]: below 50 mM

SMILES: N#Cc1ccc(/C=C/c2ccc(B(O)O)cc2)cc1 [CSTBA, 4′-cyanostilbene-4-boronic acid]
red shift of emission spectra ([3]; increasing fructose, pH 8.0 buffer/methanol (2:1)): about 25 nm

SMILES: CN(C)c1ccc(/C=C/c2ccc(B(O)O)cc2)cc1 [DSTBA, 4′-dimethylaminostilbene-4-boronic acid]
ratiometric change in intensity ([1]; 60 mM glucose, pH 8.0 buffer/methanol (2:1)): 2 fold | ratiometric change in intensity ([3]; 60 mM fructose, pH 8.0 buffer/methanol (2:1)): 4.5 fold | blue shift of emission spectra ([3]; fructose 0 mM→100 mM, pH 8.0 buffer/methanol (2:1)): about 30 nm

λem (max) [6]: 453 nm | τf (mean lifetime) [6]: 27.3 ns | φf (quantum yield) [6]: 0.54
SMILES: COc1ccc2c(ccc[n+]2Cc2ccccc2)c1 [BMOQ, N-benzyl-6-methoxyquinolinium bromide]

λabs (max) [6]: 322 nm | λem (max) [6]: 427 nm | τf (mean lifetime) [6]: 2.59 ns | φf (quantum yield) [6]: 0.045
SMILES: Cc1ccc2c(ccc[n+]2Cc2ccccc2)c1 [BMQ, N-benzyl-6-methylquinolinium bromide]
